Among the data in patent US20250136606A1, “MODULATORS OF TRPML, THEIR COMPOSITIONS AND METHODS OF USE” (Caraway Therapeutics, Inc., priority 2021, published 2025) are EC50 values, retold here.

What all share (assay type): cell-based
Assay [1] addresses TRPML1 (Homo sapiens, UniProt Q9GZU1). Briefly: Fluorescent TRPML1 assay (Fluo4-AM calcium fluorescence in doxycycline-induced HEK-293 Trex cells). The gist of the method: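 First, expression of surface-targeted mutant human TRPML1 is induced in HEK-293 Trex cells with 0.5 ug/mL doxycycline the day before. Next, cells take up 1 micromolar Fluo4-AM in Ringer's with 0.1% Pluronic. Finally, they are added to compounds (6 nanomolar–20 micromolar final) in 10 mM calcium Ringer's and fluorescence is read.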

Assay [2] deals with T1, TRPML3 (Homo sapiens, UniProt Q8TDD5).
T1 construct: expressed in transfected cells
T1 sequence (Q8TDD5 1-553): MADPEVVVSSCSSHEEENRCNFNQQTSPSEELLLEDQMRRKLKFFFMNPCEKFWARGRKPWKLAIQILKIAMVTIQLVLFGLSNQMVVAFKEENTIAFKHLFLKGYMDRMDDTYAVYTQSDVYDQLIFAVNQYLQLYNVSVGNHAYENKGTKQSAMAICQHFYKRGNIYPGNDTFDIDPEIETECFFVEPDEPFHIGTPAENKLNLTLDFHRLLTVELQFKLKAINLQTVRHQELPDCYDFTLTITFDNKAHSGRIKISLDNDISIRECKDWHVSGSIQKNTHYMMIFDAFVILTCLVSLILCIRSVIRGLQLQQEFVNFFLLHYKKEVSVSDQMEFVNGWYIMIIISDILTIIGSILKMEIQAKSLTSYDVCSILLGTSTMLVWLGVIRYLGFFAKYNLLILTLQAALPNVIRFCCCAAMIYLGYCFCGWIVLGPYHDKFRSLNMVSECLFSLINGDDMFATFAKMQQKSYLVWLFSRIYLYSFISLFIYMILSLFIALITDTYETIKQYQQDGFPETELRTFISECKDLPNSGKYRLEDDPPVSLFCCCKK
The assay is described as follows: Fluorescent TRPML3 assay (performed as for TRPML1, substituting the TRPML3 subtype). An outline of the steps: (§1)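 Compound series (final 6 nM-20 μM, half-log, triplicate) were added to Fluo4-AM-loaded HEK-293 Trex cells in 10 mM calcium Ringer's, expressing the human TRPML subtype after doxycycline 0.5 ug/mL induction. Percent activity versus positive/negative controls from 480/540 nm fluorescence; EC50 by non-linear regression.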

In assay [3] the target is T2, TRPML2 (Homo sapiens, UniProt Q8IZK6).
T2 construct: expressed in transfected cells
T2 sequence (Q8IZK6 1-566): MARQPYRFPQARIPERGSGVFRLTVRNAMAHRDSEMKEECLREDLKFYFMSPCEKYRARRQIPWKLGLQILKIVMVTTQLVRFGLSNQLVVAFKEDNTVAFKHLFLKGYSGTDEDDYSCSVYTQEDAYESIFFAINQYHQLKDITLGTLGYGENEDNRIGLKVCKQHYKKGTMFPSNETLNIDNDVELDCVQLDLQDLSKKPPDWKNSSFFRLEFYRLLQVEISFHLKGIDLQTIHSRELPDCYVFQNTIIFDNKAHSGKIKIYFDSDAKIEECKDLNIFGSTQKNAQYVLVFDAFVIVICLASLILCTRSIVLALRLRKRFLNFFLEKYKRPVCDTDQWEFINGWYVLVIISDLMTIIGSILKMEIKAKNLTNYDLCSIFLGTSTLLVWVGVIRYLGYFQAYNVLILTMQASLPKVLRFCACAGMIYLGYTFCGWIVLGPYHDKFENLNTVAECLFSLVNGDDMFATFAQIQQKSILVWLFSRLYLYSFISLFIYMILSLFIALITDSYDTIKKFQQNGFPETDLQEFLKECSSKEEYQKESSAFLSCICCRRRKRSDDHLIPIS
The assay is described as follows: Fluorescent TRPML2 assay (performed as for TRPML1, substituting the TRPML2 subtype). An outline of the steps: as §1

TRPML1, sequence (Q9GZU1 whole entry L15A/L16A/L577A/L578A, form open): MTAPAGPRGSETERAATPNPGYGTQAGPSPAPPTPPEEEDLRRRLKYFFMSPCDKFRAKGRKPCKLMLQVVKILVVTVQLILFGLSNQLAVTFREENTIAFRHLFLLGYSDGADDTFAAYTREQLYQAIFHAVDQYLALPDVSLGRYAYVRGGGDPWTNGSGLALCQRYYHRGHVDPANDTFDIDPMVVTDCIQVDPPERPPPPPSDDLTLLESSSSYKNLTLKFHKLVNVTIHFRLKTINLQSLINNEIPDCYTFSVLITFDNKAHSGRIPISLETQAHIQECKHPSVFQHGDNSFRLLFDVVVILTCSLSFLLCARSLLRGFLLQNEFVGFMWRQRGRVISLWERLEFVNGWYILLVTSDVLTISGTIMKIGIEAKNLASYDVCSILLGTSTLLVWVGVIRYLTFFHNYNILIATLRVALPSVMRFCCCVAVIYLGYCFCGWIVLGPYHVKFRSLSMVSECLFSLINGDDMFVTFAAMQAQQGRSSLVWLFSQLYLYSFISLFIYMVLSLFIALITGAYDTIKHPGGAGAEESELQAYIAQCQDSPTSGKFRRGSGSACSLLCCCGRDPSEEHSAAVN

On to `Cc1cn(-c2cncc(F)c2)c2ncnc(N3C[C@@H](C)N(C(=O)OC(C)(C)C)C[C@@H]3C)c12` [Compound 672, tert-butyl (2R,5S)-4-(7-(5-fluoropyridin-3-yl)-5-methyl-7H-pyrrolo[2,3-d]pyrimidin-4-yl)-2,5-dimethylpiperazine-1-carboxylate], for which the EC50 was 100 to 500 nM in assay [1], 100 to 500 nM in assay [2] and 500 to 2000 nM in assay [3].
For `Cc1cn(-c2ccccn2)c2ncnc(N3C[C@@H](C)N(C(=O)OC(C)(C)C)C[C@@H]3C)c12` [Compound 673, tert-butyl (2R,5S)-2,5-dimethyl-4-(5-methyl-7-(pyridin-2-yl)-7H-pyrrolo[2,3-d]pyrimidin-4-yl)piperazine-1-carboxylate], the results for the EC50 in assay [1], in assay [2] and in assay [3] were 100 to 500 nM, 100 to 500 nM and greater than 2000 nM, respectively.
`Cc1cn(-c2cncc(C#N)c2)c2ncnc(N3C[C@@H](C)N(C(=O)OC(C)(C)C)C[C@@H]3C)c12` [Compound 675, tert-butyl (2R,5S)-4-(7-(5-cyanopyridin-3-yl)-5-methyl-7H-pyrrolo[2,3-d]pyrimidin-4-yl)-2,5-dimethylpiperazine-1-carboxylate]: the EC50 is less than 100 nM in assay [1], 100 to 500 nM in assay [2] and 100 to 500 nM in assay [3].
As to `Cc1cn(-c2ccc(F)cc2)c2ncnc(N3C[C@@H](C)N(C(=O)OC(C)(C)C)C[C@@H]3C)c12` [Compound 676, tert-butyl (2R,5S)-4-(7-(4-fluorophenyl)-5-methyl-7H-pyrrolo[2,3-d]pyrimidin-4-yl)-2,5-dimethylpiperazine-1-carboxylate], the results for the EC50 in assay [1], in assay [2] and in assay [3] were less than 100 nM, less than 100 nM and 100 to 500 nM, respectively.
Regarding `Cc1cn(-c2cc(F)cc(Cl)c2)c2ncnc(N3C[C@@H](C)N(C(=O)OC(C)(C)C)C[C@@H]3C)c12` [Compound 677, tert-butyl (2R,5S)-4-(7-(3-chloro-5-fluorophenyl)-5-methyl-7H-pyrrolo[2,3-d]pyrimidin-4-yl)-2,5-dimethylpiperazine-1-carboxylate], the EC50 in assay [1] was less than 100 nM; in assay [2] it was less than 100 nM; in assay [3] it was 100 to 500 nM.
For the compound `Cc1cn(-c2cc(F)ccn2)c2ncnc(N3CCN(C(=O)OC(C)(C)C)[C@H](C)C3)c12` [Compound 678, tert-butyl (R)-4-(7-(4-fluoropyridin-2-yl)-5-methyl-7H-pyrrolo[2,3-d]pyrimidin-4-yl)-2-methylpiperazine-1-carboxylate], the EC50 in assay [1], in assay [2] and in assay [3] was 100 to 500 nM in each case.
As to `Cc1cn(-c2cc(C(F)(F)F)ccn2)c2ncnc(N3CCN(C(=O)OC(C)(C)C)[C@H](C)C3)c12` [Compound 679, tert-butyl (R)-2-methyl-4-(5-methyl-7-(4-(trifluoromethyl)pyridin-2-yl)-7H-pyrrolo[2,3-d]pyrimidin-4-yl)piperazine-1-carboxylatee], the EC50 in assay [1], in assay [2] and in assay [3] was less than 100 nM each time.
`Cc1cn(-c2cc(C#N)ccn2)c2ncnc(N3CCN(C(=O)OC(C)(C)C)[C@H](C)C3)c12` [Compound 680, tert-butyl (R)-4-(7-(4-cyanopyridin-2-yl)-5-methyl-7H-pyrrolo[2,3-d]pyrimidin-4-yl)-2-methylpiperazine-1-carboxylate]: the EC50 in assay [1], in assay [2] and in assay [3] was less than 100 nM in each case.
As for `Cc1cn(-c2cc(F)ccn2)c2ncnc(N3CCN(C(=O)OC(C)(C)C)C[C@@H]3C)c12` [Compound 681, tert-butyl (S)-4-(7-(4-fluoropyridin-2-yl)-5-methyl-7H-pyrrolo[2,3-d]pyrimidin-4-yl)-3-methylpiperazine-1-carboxylate], the EC50 in assay [1], in assay [2] and in assay [3] was less than 100 nM each time.
Take `Cc1cn(-c2cc(C(F)(F)F)ccn2)c2ncnc(N3CCN(C(=O)OC(C)(C)C)C[C@@H]3C)c12` [Compound 682, tert-butyl (S)-3-methyl-4-(5-methyl-7-(4-(trifluoromethyl)pyridin-2-yl)-7H-pyrrolo[2,3-d]pyrimidin-4-yl)piperazine-1-carboxylate]: the EC50 in assay [1], in assay [2] and in assay [3] was less than 100 nM each time.
Regarding `Cc1cn(-c2cccc(F)c2)c2ncnc(N3CCN(C(=O)OC(C)(C)C)C[C@@H]3C)c12` [Compound 683, tert-butyl (S)-4-(7-(3-fluorophenyl)-5-methyl-7H-pyrrolo[2,3-d]pyrimidin-4-yl)-3-methylpiperazine-1-carboxylate], the EC50 in assay [1] was less than 100 nM; in assay [2], less than 100 nM; in assay [3], 100 to 500 nM.
On to `Cc1cn(-c2cccc(C(F)(F)F)c2)c2ncnc(N3CCN(C(=O)OC(C)(C)C)C[C@@H]3C)c12` [Compound 684, tert-butyl (S)-3-methyl-4-(5-methyl-7-(3-(trifluoromethyl)phenyl)-7H-pyrrolo[2,3-d]pyrimidin-4-yl)piperazine-1-carboxylate], for which the EC50 in assay [1], in assay [2] and in assay [3] was less than 100 nM throughout.
`Cc1cn(-c2ccccc2)c2ncnc(N3CCN(C(=O)OC(C)(C)C)C[C@@H]3C)c12` [Compound 685, tert-butyl (S)-3-methyl-4-(5-methyl-7-phenyl-7H-pyrrolo[2,3-d]pyrimidin-4-yl)piperazine-1-carboxylate]: the EC50 in assay [1] is less than 100 nM; in assay [2], less than 100 nM; in assay [3], 500 to 2000 nM.
With `Cc1cn(-c2cccc(C#N)c2)c2ncnc(N3CCN(C(=O)OC(C)(C)C)C[C@@H]3C)c12` [Compound 686, tert-butyl (S)-4-(7-(3-cyanophenyl)-5-methyl-7H-pyrrolo[2,3-d]pyrimidin-4-yl)-3-methylpiperazine-1-carboxylate], the EC50 in assay [1], in assay [2] and in assay [3] was less than 100 nM each time.
For `Cc1cn(-c2cc(F)cc(F)c2)c2ncnc(N3CCN(C(=O)OC(C)(C)C)C[C@@H]3C)c12` [Compound 687, tert-butyl (S)-4-(7-(3,5-difluorophenyl)-5-methyl-7H-pyrrolo[2,3-d]pyrimidin-4-yl)-3-methylpiperazine-1-carboxylate], the figures for the EC50 in assay [1], in assay [2] and in assay [3] were less than 100 nM, less than 100 nM and 100 to 500 nM, respectively.
As to `Cc1cn(-c2cccc(Cl)c2)c2ncnc(N3CCN(C(=O)OC(C)(C)C)C[C@@H]3C)c12` [Compound 688, tert-butyl (S)-4-(7-(3-chlorophenyl)-5-methyl-7H-pyrrolo[2,3-d]pyrimidin-4-yl)-3-methylpiperazine-1-carboxylate], the half-maximal effective concentration (EC50) in assay [1], in assay [2] and in assay [3] was less than 100 nM each time.
`Cc1cn(-c2cncc(F)c2)c2ncnc(N3CCN(C(=O)OC(C)(C)C)C[C@@H]3C)c12` [Compound 689, tert-butyl (S)-4-(7-(5-fluoropyridin-3-yl)-5-methyl-7H-pyrrolo[2,3-d]pyrimidin-4-yl)-3-methylpiperazine-1-carboxylate]: the EC50 in assay [1] was less than 100 nM; in assay [2] it was 100 to 500 nM; in assay [3], 100 to 500 nM.
As to `Cc1cn(-c2ccccn2)c2ncnc(N3CCN(C(=O)OC(C)(C)C)C[C@@H]3C)c12` [Compound 690, tert-butyl (S)-3-methyl-4-(5-methyl-7-(pyridin-2-yl)-7H-pyrrolo[2,3-d]pyrimidin-4-yl)piperazine-1-carboxylate], the EC50 in assay [1] is less than 100 nM; in assay [2], less than 100 nM; in assay [3] it was 500 to 2000 nM.
For the compound `Cc1cn(-c2ccc(F)cc2)c2ncnc(N3CCN(C(=O)OC(C)(C)C)C[C@@H]3C)c12` [Compound 692, tert-butyl (S)-4-(7-(4-fluorophenyl)-5-methyl-7H-pyrrolo[2,3-d]pyrimidin-4-yl)-3-methylpiperazine-1-carboxylate], the EC50 in assay [1], in assay [2] and in assay [3] was less than 100 nM in each case.
